# pIC50: −log10 of the molar value.
# Tested on: T1, estrogen receptors (ERs; subtype not resolved)
# T1 construct: endogenous receptors in whole endometriotic stromal cells (ESCs)
# Experiment: whole-cell competitive radioligand binding against [3H]-E2
# Format: cell-based, Homo sapiens
# Experimental: whole-cell competitive radioligand binding against [3H]-E2 on estrogen receptors (ERs; subtype not resolved) | puerarin also competed against the specific binding of [^3H]-E2 to ERs, and the IC50 of puerarin was determined
structure (smiles),measurement,value
O=c1c(-c2ccc(O)cc2)coc2c([C@@H]3O[C@H](CO)[C@@H](O)[C@H](O)[C@H]3O)c(O)ccc12 [puerarin],pIC50,6.06

# — paper PMC3446905, “Puerarin Suppresses Proliferation of Endometriotic Stromal Cells Partly via the MAPK Signaling Pathway Induced by 17ß-estradiol-BSA” (PLoS ONE, 2012)
